Experimental findings from article PMC8950151, “Synthesis and Evaluation of the Antifungal and Toxicological Activity of Nitrofuran Derivatives” (Pharmaceutics, 2022) are described below.

The term IC50 denotes the concentration that gives 50% inhibition. What is called viability is the share of living cells, or the viability signal relative to a control.

Converted amounts (≈) assume the structure as drawn. Where two headings read alike, the source gives them in different places. A value given as a limit tells only on which side of the number the result lay.

Data set [1] relates to Candida albicans (ATCC 90028). Description: Susceptibility test (CLSI M27-A3 broth microdilution, resazurin readout), MIC90. The format is cell-based. The conditions noted are these: ATCC90028, C. albicans, 24 h, 37 °C. For orientation: Broth dilution looks for growth in wells or tubes with falling amounts of substance.
For data set [2], the system named is C. krusei (ATCC 6258). The data set is described as above. It counts as cell-based, Candida krusei. The conditions noted are these: Pichia kudriavzevii, ATCC6258, 24 h.
Data set [3] concerns C. glabrata (ATCC 90030). The description is as above. The format is cell-based, Candida glabrata. As to conditions: Nakaseomyces glabratus, ATCC90030, 24 h, 37 °C.
The subject of data set [4] is Cryptococcus neoformans (H99/ATCC 208821). The data set is described as above. As to conditions: ATCC208821, 48 h. It counts as cell-based.
For data set [5], the system named is Histoplasma capsulatum (G217-B/ATCC 26032). Description: microbe, parasite or virus in culture. The format is cell-based. As to conditions: ATCC26032, 144 h.
For data set [6], the system named is T. rubrum (ATCC 28289). Description: Susceptibility assay for dermatophytes (CLSI M38-A2, resazurin), MIC90. The format is cell-based. As to conditions: Trichophyton rubrum, ATCC28289, 96 h, 35 °C. (The colour change of resazurin is a common sign of viable cells or microbes.)
The subject of data set [7] is Trichophyton mentagrophytes (ATCC 11481). The description is as above. The format is cell-based. The conditions noted are these: T. mentagrophytes, 35 °C.
Data set [8] relates to Candida albicans (ATCC 90028). Description: Minimum fungicidal concentration (MFC). It counts as cell-based. As to conditions: ATCC90028, C. albicans.
For data set [9], the system named is C. krusei (ATCC 6258). Description: Minimum fungicidal concentration (MFC). The format is cell-based, Candida krusei. The conditions noted are these: Pichia kudriavzevii, ATCC6258.
Data set [10] concerns C. glabrata (ATCC 90030). Description: Minimum fungicidal concentration (MFC). As to conditions: Nakaseomyces glabratus, ATCC90030; C. glabrata; read-out: MFC. It counts as cell-based, Candida glabrata.
In data set [11] the test system is Cryptococcus neoformans (H99/ATCC 208821). Description: Minimum fungicidal concentration (MFC). It counts as cell-based. The conditions noted are these: ATCC208821, C. neoformans.
Data set [12] relates to Histoplasma capsulatum (G217-B/ATCC 26032). Description: microbe, parasite or virus in culture. It counts as cell-based. The conditions noted are these: ATCC26032.
In data set [13] the test system is Paracoccidioides brasiliensis (Pb 18). Description: microbe, parasite or virus in culture. It counts as cell-based. As to conditions: Paracoccidioides brasiliensis.
Data set [14] deals with T. rubrum (ATCC 28289). Description: Minimum fungicidal concentration (MFC). It counts as cell-based, Trichophyton rubrum. As to conditions: Trichophyton rubrum, ATCC28289.
Data set [15] concerns Trichophyton mentagrophytes (ATCC 11481). Description: Minimum fungicidal concentration (MFC). The format is cell-based. As to conditions: Trichophyton mentagrophytes, ATCC11481; T. mentagrophytes.
Data set [16] concerns A549 (ATCC CCL-185) lung epithelial cell line. Description: Cytotoxicity assay in monolayer by resazurin colorimetric method. The conditions noted are these: Homo sapiens, A549 cells, 72 h. The format is cell-based.
Data set [17] can be described thus: in vivo. As to conditions: AU37 [glp-4 (bn2) I, sek-1 (km4) X], Caenorhabditis elegans, C. elegans larvae viability. The protocol:
The experiments were carried out with the mutant strain (AU37 [glp-4 (bn2) I; […]]). The strain was maintained on plates containing nematode growth medium (NGM) seeded with Escherichia coli OP50 at 16 °C. The stage of synchronization of young adults at stage L4 was performed for the toxicity test. About 20 larvae were transferred to each well of 96-well plates containing 100 μL of a medium composed of 60% of 50 mM NaCl; 40% BHI broth; 10 mg/mL cholesterol in ethanol; 200 mg/mL ampicillin and 90 mg/mL kanamycin. Then, 100 μL of dilutions of nitrofuran derivatives (showing the best selectivity index against the fungal species) were added. […] Plates were incubated at 25 °C for 24 h. Survival was assessed by the mobility and shape of the nematode (stick-shaped larvae were considered dead, while sinusoidal larvae were considered alive) under an inverted optical microscope on 40× objective lenses.

Data set [18] in a line: in vitro. As to conditions: human.
Where [19] appears, read: Trichophyton mentagrophytes, ATCC11481, 96 h, read-out: MIC90.

On to `O=C(/C=C/c1ccc([N+](=O)[O-])o1)c1ccc(Br)cc1` [Compound 11], for which the MIC90 in data set [1] is 125 µg/mL (≈ 388 µM); in data set [2], 250 µg/mL (≈ 776 µM); in data set [3], 250 µg/mL (≈ 776 µM); in [4], at least 250 µg/mL; in data set [5], 0.48 µg/mL (≈ 1.49 µM); in data set [6], 7.8 µg/mL (≈ 24.2 µM). Moreover, the MIC90 in data set [7] (setting [19]) stood at 7.8 µg/mL (≈ 24.2 µM). Moreover, the MFC is 250 µg/mL (≈ 776 µM) in data set [8]; over 250 µg/mL in data set [9]; over 250 µg/mL in [10]; at least 250 µg/mL in data set [11]; 0.48 µg/mL (≈ 1.49 µM) in data set [12]; 0.98 µg/mL (≈ 3.04 µM) in [13]. Besides, the MFC was 15.6 µg/mL (≈ 48.4 µM) in data set [14] and 7.8 µg/mL (≈ 24.2 µM) in data set [15]. The IC50 turned out to be 12.2 µg/mL (≈ 38 µM) in data set [16] and 62.6 µg/mL (≈ 194 µM) in data set [18]. The viability at 24 h, 250 µg/mL in [17] came to 80%.
Take `COc1ccc(C(=O)/C=C/c2ccc([N+](=O)[O-])o2)cc1` [Compound 12]: the MIC90 in data set [1] was found to be 250 µg/mL (≈ 915 µM); in [2], 250 µg/mL (≈ 915 µM); in [3], 250 µg/mL (≈ 915 µM); in data set [4], 62.5 µg/mL (≈ 229 µM); in data set [5], 7.81 µg/mL (≈ 28.6 µM); in [6], 0.98 µg/mL (≈ 3.59 µM). Further, the MIC90 in [7] (96 h) amounted to 1.95 µg/mL (≈ 7.14 µM); in [7] (Trichophyton mentagrophytes, ATCC11481, 96 h) it was 0.98 µg/mL (≈ 3.59 µM). For the same molecule, the MFC in [8] is over 250 µg/mL; in data set [9], over 250 µg/mL; in [10] it was over 250 µg/mL; in data set [11], 125 µg/mL (≈ 457 µM); in [12] it was 15.6 µg/mL (≈ 57.2 µM); in [13] it was 3.9 µg/mL (≈ 14.3 µM). The MFC in data set [14] and in data set [15] was 1.95 µg/mL (≈ 7.14 µM) each time. In addition, the IC50 was determined as 250 µg/mL (≈ 915 µM) in [16] and 228 µg/mL (≈ 834 µM) in data set [18]. This molecule displayed a viability at 24 h, 250 µg/mL in data set [17] of over 94%.
`O=C(/C=C/c1ccc([N+](=O)[O-])o1)c1ccc(Cl)cc1` [Compound 10]: the MIC90 was 250 µg/mL (≈ 900 µM) in data set [1]; over 250 µg/mL in data set [2]; over 250 µg/mL in data set [3]; 250 µg/mL (≈ 900 µM) in [4]; 7.81 µg/mL (≈ 28.1 µM) in data set [5]; 3.9 µg/mL (≈ 14 µM) in data set [6]. The MIC90 in [7] (setting [19]) amounted to 3.9 µg/mL (≈ 14 µM). The MFC in data set [8] is over 250 µg/mL; in [9], over 250 µg/mL; in data set [10], over 250 µg/mL; in data set [11], at least 250 µg/mL; in [12] it was 15.6 µg/mL (≈ 56.3 µM); in [13], 0.98 µg/mL (≈ 3.53 µM). The MFC in [14] and in [15] was 7.81 µg/mL (≈ 28.1 µM) in each case. For the same molecule, the figures for the IC50 in data set [16] and in data set [18] were 38.7 µg/mL (≈ 139 µM) and 215 µg/mL (≈ 776 µM), respectively.
As for `O=C(NCCc1c[nH]c2ccccc12)c1ccc([N+](=O)[O-])o1` [Compound 7], the MIC90 in data set [1] was 250 µg/mL (≈ 835 µM); in [2], 250 µg/mL (≈ 835 µM); in [3], over 250 µg/mL; in data set [4] it was 62.5 µg/mL (≈ 209 µM); in [5], 0.98 µg/mL (≈ 3.27 µM); in [6], 125 µg/mL (≈ 418 µM). In addition, the MIC90 in data set [7] (setting [19]) is 125 µg/mL (≈ 418 µM). Besides, the MFC in data set [8] was over 250 µg/mL; in [9], over 250 µg/mL; in data set [10], over 250 µg/mL; in data set [11], 62.5 µg/mL (≈ 209 µM); in data set [12], 0.98 µg/mL (≈ 3.27 µM); in [13], 1.95 µg/mL (≈ 6.52 µM). For the same molecule, the MFC in [14] and in data set [15] was over 250 µg/mL in each case. Further, the 50% inhibitory concentration (IC50) worked out at 8.58 µg/mL (≈ 28.7 µM) in data set [16] and 71.2 µg/mL (≈ 238 µM) in data set [18].
